Data on 11 compounds can be found in ChEMBL document CHEMBL1201862, “PubChem BioAssay data set” (2004).

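Compound exposure: 48 hours, 5 concentrations, 96-well plates. GI50 = concentration required for 50% inhibition of growth.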 The source made the active and inactive calls. No stated cut-off is given here; in the data, active = GI50 up to about 1.1 µM and inactive = higher.

Among the test systems are HCT-15; U-251; NCI-H460; LOX IMVI; A498; MDA-MB-435; NCI-H522; IGROV-1; SK-MEL-5; MOLT-4; ACHN; HCT-116; SK-MEL-28; OVCAR-3; SF-539; SW-620; SK-OV-3; SF-268; CCRF-CEM; HOP-92.
Test in all cases: inhibition of tumour cell growth, NCI panel, 48 h

`COC1=CC(=O)c2c(CCNC(=O)OCc3ccccc3)n[nH]c2C1=O`: the GI50 is 12.6 µM in the experiment with HCT-15; 13.2 µM (inactive) in the experiment on U-251; 15.3 µM (inactive) in the experiment on NCI-H460; 4.54 µM (inactive) with LOX IMVI; 17.5 µM (inactive) with A498; 2.16 µM (inactive) with MDA-MB-435. In addition, the GI50 in the experiment on NCI-H522 is 7.78 µM (inactive); in the experiment with IGROV-1 it was 15.4 µM (inactive); with SK-MEL-5 it was 3.97 µM (inactive); in the experiment on MOLT-4, 16.8 µM (inactive); in the experiment with ACHN it was 14.2 µM (inactive); with HCT-116, 12.4 µM (inactive). For the same compound, the GI50 was 12.1 µM (inactive) in the experiment on SK-MEL-28, 18.1 µM (inactive) in the experiment with OVCAR-3, 17.9 µM (inactive) with SF-539 and 19.5 µM (inactive) with SW-620.

Turning to `O=CN1CCN(C(=O)c2ccc(Cl)c(Cl)c2)C1=S`, the GI50 in the experiment with HCT-15 is 19.3 µM; with SK-OV-3 it was 18.9 µM (inactive); in the experiment with U-251, 12.5 µM (inactive); with NCI-H460, 19.2 µM (inactive); in the experiment on LOX IMVI, 9.29 µM (inactive); with A498, 15.8 µM (inactive). Also, the GI50 in the experiment on MDA-MB-435 was 16.6 µM (inactive); with NCI-H522 it was 4.93 µM (inactive); in the experiment with IGROV-1, 15.1 µM (inactive); with SF-268 it was 22.2 µM (inactive); with MOLT-4 it was 22.8 µM (inactive); in the experiment with ACHN, 17.3 µM (inactive). In addition, the GI50 in the experiment on CCRF-CEM is 7.13 µM (inactive); in the experiment on HCT-116, 16.3 µM (inactive); in the experiment on SK-MEL-28 it was 18.2 µM (inactive); in the experiment on OVCAR-3 it was 15 µM (inactive); with SF-539 it was 20.7 µM (inactive); with SW-620, 19.4 µM (inactive).

On to `O=C(/N=N/c1ccccc1Cl)NNc1ccccc1Cl`, for which the GI50 in the experiment with HCT-15 was 60.7 µM; in the experiment with U-251 it was 41.6 µM (inactive); in the experiment on NCI-H460, 65 µM (inactive); in the experiment on LOX IMVI it was 23.4 µM (inactive); in the experiment with A498 it was 29 µM (inactive); with MDA-MB-435, 31 µM (inactive). In addition, the GI50 with NCI-H522 was 23.6 µM (inactive); with IGROV-1, 20.4 µM (inactive); with SF-268, 60.5 µM (inactive); in the experiment with SK-MEL-5 it was 85.3 µM (inactive); in the experiment on MOLT-4 it was 29.3 µM (inactive); in the experiment on ACHN, 28.1 µM (inactive). Further, the GI50 is 22.2 µM (inactive) with CCRF-CEM; 20.5 µM (inactive) in the experiment with HCT-116; 69.7 µM (inactive) with SK-MEL-28; 35 µM (inactive) in the experiment on OVCAR-3; 40.7 µM (inactive) in the experiment on SW-620.

Take `Cc1cc(C#N)c(Nc2ccccc2[N+](=O)[O-])s1`: the GI50 is 57.9 µM (inactive) with HOP-92; 28.8 µM with HCT-15; 26.4 µM (inactive) in the experiment with SK-OV-3; 20.3 µM (inactive) with U-251; 36.6 µM (inactive) in the experiment with NCI-H460; 37.7 µM (inactive) with A498. Further, the GI50 was 18.8 µM (inactive) in the experiment with MDA-MB-435; 19.8 µM (inactive) in the experiment on NCI-H522; 13.8 µM (inactive) in the experiment with IGROV-1; 51.5 µM (inactive) with SF-268; 55.7 µM (inactive) with MOLT-4; 58.7 µM (inactive) in the experiment on ACHN. The GI50 was 39.3 µM (inactive) in the experiment on CCRF-CEM; 23.8 µM (inactive) in the experiment on HCT-116; 45.2 µM (inactive) in the experiment with SK-MEL-28; 21 µM (inactive) in the experiment on OVCAR-3; 27.7 µM (inactive) with SF-539; 25.5 µM (inactive) with SW-620.

Regarding `COc1cc(C2C3=C(NC(=O)C2C#N)c2ccc4ccccc4c2OCC3)cc(OC)c1OC` (stereo unspecified), the GI50 is 10.4 µM (inactive) in the experiment on HOP-92; 41.8 µM in the experiment on HCT-15; 17.2 µM (inactive) in the experiment on SK-OV-3; 16.7 µM (inactive) in the experiment on U-251; 25.9 µM (inactive) in the experiment on NCI-H460; 12.4 µM (inactive) in the experiment on A498. The GI50 in the experiment on MDA-MB-435 was 41.7 µM (inactive); in the experiment on NCI-H522, 28.9 µM (inactive); in the experiment on IGROV-1 it was 16.2 µM (inactive); in the experiment with SF-268 it was 22.8 µM (inactive); with SK-MEL-5, 28.2 µM (inactive); in the experiment on MOLT-4, 34.2 µM (inactive). The GI50 in the experiment with ACHN is 16.6 µM (inactive); with CCRF-CEM it was 70.8 µM (inactive); in the experiment on HCT-116, 15.7 µM (inactive); in the experiment with SK-MEL-28, 18.3 µM (inactive); with OVCAR-3, 45 µM (inactive); in the experiment with SF-539, 18.7 µM (inactive). For the same compound, in the experiment with SW-620, the GI50 is 78.7 µM (inactive).

Take `NC(=S)N1N=C2c3ccccc3CCC[C@H]2[C@@H]1c1ccccc1`: the GI50 in the experiment on HCT-15 is 1.29 µM; with SK-OV-3, 0.427 µM (active); in the experiment with U-251, 2.33 µM (inactive); in the experiment with NCI-H460, 1.07 µM (active); with LOX IMVI it was 1.59 µM (inactive); in the experiment with A498, 3.1 µM (inactive). Also, the GI50 with MDA-MB-435 was 0.0977 µM (active); in the experiment on NCI-H522, 0.361 µM (active); with IGROV-1, 2.36 µM (inactive); in the experiment with SF-268 it was 3 µM (inactive); with SK-MEL-5, 0.664 µM (active); in the experiment with MOLT-4 it was 0.638 µM (active). Further, the GI50 with ACHN is 5.07 µM (inactive); in the experiment on CCRF-CEM, 0.528 µM (active); with HCT-116, 1.26 µM (inactive); in the experiment on SK-MEL-28, 10.5 µM (inactive); in the experiment on OVCAR-3, 0.661 µM (active); in the experiment with SF-539, 0.518 µM (active). In the experiment with SW-620, the GI50 is 0.385 µM (active).

In the case of `N#Cc1nc(-c2cccnc2)oc1N`, the GI50 was > 100 µM (inactive) in the experiment on HOP-92; above 100 µM in the experiment on HCT-15; > 100 µM (inactive) with SK-OV-3; > 100 µM (inactive) in the experiment with U-251; > 100 µM (inactive) with NCI-H460; > 100 µM (inactive) in the experiment on LOX IMVI. Further, the GI50 in the experiment with A498, in the experiment on MDA-MB-435, in the experiment with NCI-H522, in the experiment on IGROV-1, with SF-268 and in the experiment on SK-MEL-5 was > 100 µM (inactive) in each case. The GI50 in the experiment on MOLT-4 is 74 µM (inactive); with ACHN, > 100 µM (inactive); in the experiment on CCRF-CEM, > 100 µM (inactive); in the experiment with HCT-116, > 100 µM (inactive); in the experiment on SK-MEL-28 it was > 100 µM (inactive); in the experiment with OVCAR-3, > 100 µM (inactive). In addition, the GI50 in the experiment with SW-620 is > 100 µM (inactive).

In the case of `NC(Cc1ccc(S(=O)(=O)O)cc1)C(=O)NC(Cc1ccc(S(=O)(=O)O)cc1)C(=O)NC(Cc1ccc(S(=O)(=O)O)cc1)C(=O)O` (stereo unspecified), the GI50 in the experiment with HCT-15 was above 100 µM; in the experiment with U-251, > 100 µM (inactive); in the experiment with NCI-H460, > 100 µM (inactive); with LOX IMVI, > 100 µM (inactive); in the experiment on A498, > 100 µM (inactive); with MDA-MB-435 it was > 100 µM (inactive). Moreover, the GI50 in the experiment on NCI-H522, with IGROV-1, with SF-268, in the experiment on SK-MEL-5, in the experiment with MOLT-4 and with ACHN was > 100 µM (inactive) throughout. Besides, the GI50 in the experiment on CCRF-CEM, in the experiment with HCT-116, with SK-MEL-28, in the experiment on OVCAR-3, with SF-539 and in the experiment on SW-620 was > 100 µM (inactive) each time.

On to `Cc1ccnc(NS(=O)(=O)c2ccc(NC(=O)c3ccc4nc5ccccc5c(Nc5ccc(S(=O)(=O)Nc6nccc(C)n6)cc5)c4c3)cc2)n1`, for which the GI50 with HOP-92 is 23.2 µM (inactive); in the experiment on HCT-15, above 100 µM; in the experiment with SK-OV-3, > 100 µM (inactive); in the experiment with U-251, 19.8 µM (inactive); in the experiment on NCI-H460, 65.3 µM (inactive); in the experiment with LOX IMVI it was 45.3 µM (inactive). Besides, the GI50 is 66.1 µM (inactive) with MDA-MB-435; 39.4 µM (inactive) in the experiment with NCI-H522; 63.1 µM (inactive) with IGROV-1; 28.3 µM (inactive) in the experiment on SF-268; 27.7 µM (inactive) in the experiment on SK-MEL-5; 39.9 µM (inactive) in the experiment on MOLT-4. The GI50 is > 100 µM (inactive) in the experiment on ACHN; 42.3 µM (inactive) in the experiment on CCRF-CEM; 59 µM (inactive) with HCT-116; > 100 µM (inactive) in the experiment with SK-MEL-28; 33.6 µM (inactive) in the experiment with OVCAR-3; 52 µM (inactive) with SF-539. For the same compound, the GI50 with SW-620 was > 100 µM (inactive).

`C=CCc1cccc2cc(C(=O)NC3CCCCC3)c(=N)oc12`: the GI50 in the experiment with HOP-92 was 35 µM (inactive); in the experiment with HCT-15 it was 14.1 µM; in the experiment with SK-OV-3, 24 µM (inactive); with U-251, 27.2 µM (inactive); in the experiment on NCI-H460, 16.1 µM (inactive); in the experiment with LOX IMVI, 15.4 µM (inactive). The GI50 is 16.7 µM (inactive) with A498; 20.7 µM (inactive) with MDA-MB-435; > 100 µM (inactive) in the experiment with NCI-H522; > 100 µM (inactive) with IGROV-1; 17.7 µM (inactive) in the experiment on SF-268; 14 µM (inactive) with SK-MEL-5. Moreover, the GI50 is > 100 µM (inactive) with MOLT-4; 11.1 µM (inactive) in the experiment with ACHN; 17.5 µM (inactive) in the experiment with CCRF-CEM; 13.9 µM (inactive) with HCT-116; 17.3 µM (inactive) in the experiment on SK-MEL-28; 14.1 µM (inactive) with OVCAR-3. In the experiment on SW-620, the GI50 is 33.4 µM (inactive).

Take `OCSc1nn(CO)c(=S)s1`: the GI50 was 11.4 µM (inactive) in the experiment on HOP-92; 18.3 µM in the experiment with HCT-15; 34.4 µM (inactive) with SK-OV-3; 23.8 µM (inactive) in the experiment with U-251; 23.8 µM (inactive) in the experiment with NCI-H460; 18 µM (inactive) with LOX IMVI. The GI50 was 18.4 µM (inactive) with MDA-MB-435; 17 µM (inactive) in the experiment on NCI-H522; 17.7 µM (inactive) in the experiment with IGROV-1; 21.6 µM (inactive) with SF-268; 31.8 µM (inactive) with SK-MEL-5; 23.4 µM (inactive) in the experiment on MOLT-4. The GI50 with ACHN is 25.1 µM (inactive); in the experiment on CCRF-CEM it was 6.79 µM (inactive); with HCT-116, 24.2 µM (inactive); in the experiment with SK-MEL-28, 21.7 µM (inactive); with OVCAR-3 it was 24 µM (inactive); in the experiment with SF-539, 23.4 µM (inactive). The GI50 with SW-620 was 28.1 µM (inactive).
